Experimental data published in patent publication US9850283B2, “Macrocyclic inhibitors of the PD-1/PD-L1 and CD80(B7-1)/PD-L1 protein/protein interactions” (BRISTOL-MYERS SQUIBB COMPANY, priority 2013, dated 2017).
Read-outs that look alike come from different tables or passages of the source. Positions of bridges follow the written chain, without caps; N, C: chain ends. Non-standard residues stand in square brackets, D forms with d. Residues, ends and D or L forms follow the SMILES beside them. ξ: configuration not given here. *: point of attachment. Pro(trans-4-cHex) = O=C(O)[C@@H]1C[C@@H](C2CCCCC2)CN1; Phe(4-guanidino) = N=C(N)Nc1ccc(C[C@H](N)C(=O)O)cc1; Phe(3-Me) = Cc1cccc(C[C@H](N)C(=O)O)c1; Bta = N[C@@H](Cc1csc2ccccc12)C(=O)O; ξPro(4,4-F2) = O=C(O)C1CC(F)(F)CN1; Hyp = O=C(O)[C@@H]1C[C@@H](O)CN1; NMeF = CN[C@@H](Cc1ccccc1)C(=O)O; ξW = NC(Cc1c[nH]c2ccccc12)C(=O)O; NMeNle = CCCC[C@H](NC)C(=O)O; NMeA = CN[C@@H](C)C(=O)O; Orn = NCCC[C@H](N)C(=O)O; Dab = NCC[C@H](N)C(=O)O; Dap = NC[C@H](N)C(=O)O; Bn = c1ccc(C*)cc1; Sar = CNCC(=O)O

What was measured:
Human PD-L1/PD-1 = biological target: T1, Human PD-L1/PD-1 (Homo sapiens, UniProt Q9NZQ7); experiment: HTRF PD-1-Ig/PD-L1-His binding assay (human PD-L1); details: cluster symbol; read-out: HTRF IC50 cluster
T1 construct: made in house; host or cells: HEK293T
Summary of the method: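 The time-resolved fluorescence signal comes from Eu-cryptate anti-Ig (1 nM) and APC anti-His (20 nM) antibodies bound to a PD-1-Ig/PD-L1-His complex. Both partners lack transmembrane regions.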

[1] = biological target: T2, LK35.2-hPD-L1 cells / PE-labeled PD-1-Ig (Homo sapiens, UniProt Q9NZQ7); experiment: LK35.2-hPD-L1 cell binding high-content screening assay; format: cell-based; details: cluster symbol, read-out: CBA IC50 cluster
T2 construct: expressed in transfected cells; host or cells: LK35.2 mouse B cell line
Summary of the method: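 Fluorescent PD-1-Ig binding to PD-L1-expressing LK35.2 cells, imaged after washing. Conditions: 1 nM PE-PD-1-Ig, 37 °C, 1 h, RPMI with 10% fetal calf serum.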

[2] = cell binding assay, cell line not given
[3] = cell line of CBA not given (LK35.2-hPD-L1 or 293T-hPD-L1)

T1 sequence (Q9NZQ7 with tags, fused parts or gaps): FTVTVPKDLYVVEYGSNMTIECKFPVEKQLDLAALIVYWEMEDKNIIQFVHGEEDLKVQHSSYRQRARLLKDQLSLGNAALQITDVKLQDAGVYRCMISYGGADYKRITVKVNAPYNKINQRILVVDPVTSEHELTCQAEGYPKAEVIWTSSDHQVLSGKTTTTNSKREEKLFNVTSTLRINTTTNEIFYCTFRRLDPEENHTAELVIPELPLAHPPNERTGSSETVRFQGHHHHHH
T2 sequence (Q9NZQ7 19-290): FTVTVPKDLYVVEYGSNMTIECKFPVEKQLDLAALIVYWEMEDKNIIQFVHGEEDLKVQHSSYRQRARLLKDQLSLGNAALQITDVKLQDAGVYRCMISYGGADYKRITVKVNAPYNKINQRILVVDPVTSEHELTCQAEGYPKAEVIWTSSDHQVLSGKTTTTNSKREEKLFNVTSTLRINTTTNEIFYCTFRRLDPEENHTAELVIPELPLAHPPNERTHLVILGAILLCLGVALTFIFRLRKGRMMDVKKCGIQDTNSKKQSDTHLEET

Row | Structure (SMILES) | IC50 (Human PD-L1/PD-1) [nM] | IC50 [1, 2] [nM] | IC50 [1, 3] [nM]
1 | CCCC[C@H]1C(=O)N(C)CC(=O)N[C@@H](CC(=O)O)C(=O)N[C@@H](C(C)C)C(=O)N(C)[C@@H](Cc2cnc[nH]2)C(=O)N[C@@H](Cc2ccc(O)cc2)C(=O)N(C)CC(=O)N[C@@H](Cc2c[nH]c3ccccc23)C(=O)N[C@@H](Cc2ccc(O)cc2)C(=O)N[C@@H](CC(C)C)C(=O)N[C@H](C(=O)NCC(N)=O)CSCC(=O)N[C@@H](Cc2ccccc2)C(=O)N(C)[C@@H](Cc2ccccc2)C(=O)N1C [Example 3057] (HELM PEPTIDE1{[O=C(C[*:3])[*:2]].F.[meF].[CCCC[C@@H](C(=O)[*:2])N(C)[*:1]].[Sar].D.V.[meH].Y.[Sar].W.Y.L.C.G.[am]}$PEPTIDE1,PEPTIDE1,1:R3-14:R3$$$V2.0) | > 30.5 | – | > 74.3
2 | CCCC[C@H]1C(=O)N(C)CC(=O)N[C@@H](CC(=O)O)C(=O)N[C@@H](C(C)C)C(=O)N[C@@H](Cc2cccc(C)c2)C(=O)N[C@@H](Cc2ccc(O)cc2)C(=O)N(C)CC(=O)N[C@@H](Cc2c[nH]c3ccccc23)C(=O)N[C@@H](Cc2ccc(O)cc2)C(=O)N[C@@H](CC(C)C)C(=O)N[C@H](C(=O)NCC(N)=O)CSCC(=O)N[C@@H](Cc2ccccc2)C(=O)N(C)[C@@H](Cc2ccccc2)C(=O)N1C [Example 3134] ({CH2CO}-F[NMeF][NMeNle][Sar]DV[Phe(3-Me)]Y[Sar]WYLCG-NH2; thioether N-13) | > 30.5 | – | > 74.3
3 | CCCC[C@H]1C(=O)N(C)[C@@H](CCCC)C(=O)N[C@@H](CCCNC(=N)N)C(=O)N[C@H](C(=O)NCC(N)=O)CSCC(=O)N[C@@H](Cc2ccc(O)cc2)C(=O)N(C)[C@@H](C)C(=O)N[C@@H](CC(N)=O)C(=O)N2CC(F)(F)CC2C(=O)N[C@@H](Cc2cnc[nH]2)C(=O)N[C@@H](CC(C)C)C(=O)N2CCC[C@H]2C(=O)NC(Cc2c[nH]c3ccccc23)C(=O)N[C@@H](CO)C(=O)N[C@@H](Cc2csc3ccccc23)C(=O)N1C (some centres unmarked) [Example 1048] ({CH2CO}-Y[NMeA]N[ξPro(4,4-F2)]HLP[ξW]S[Bta][NMeNle][NMeNle]RCG-NH2; thioether N-14) | 6.76 to 30.3 | – | 0.158 to 4.71
4 | CCCC[C@H]1C(=O)N(C)[C@@H](CCCC)C(=O)N[C@@H](C(C)C)C(=O)N[C@H](C(=O)NCC(N)=O)CSCC(=O)N[C@@H](Cc2ccccc2)C(=O)N(C)[C@@H](C)C(=O)N[C@@H](CC(N)=O)C(=O)N2CCC[C@H]2C(=O)N[C@@H](Cc2cnc[nH]2)C(=O)N[C@@H](CC(C)C)C(=O)N(C)CC(=O)N[C@@H](Cc2c[nH]c3ccccc23)C(=O)N[C@@H](CO)C(=O)N[C@@H](Cc2c[nH]c3ccccc23)C(=O)N1C [Example 5016] ({CH2CO}-F[NMeA]NPHL[Sar]WSW[NMeNle][NMeNle]VCG-NH2; thioether N-14) | 6.76 to 30.3 | 4.78 to 72.9 | –

Continued, values first:

Row | IC50 (Human PD-L1/PD-1) [nM] | IC50 [1, 2] [nM] | IC50 [1, 3] [nM] | Structure (SMILES)
5 | 0.385 to 6.74 | 0.158 to 4.71 | – | CCCC[C@H]1C(=O)N(C)[C@@H](CCCC)C(=O)N[C@@H](CCN)C(=O)N[C@H](C(=O)NCC(N)=O)CSCC(=O)N[C@@H](Cc2ccc(O)cc2)C(=O)N(C)[C@@H](C)C(=O)N[C@@H](CC(N)=O)C(=O)N2CCC[C@H]2C(=O)N[C@@H](Cc2c[nH]cn2)C(=O)N[C@@H](CCC(=O)O)C(=O)N2C[C@H](C3CCCCC3)C[C@H]2C(=O)N[C@@H](Cc2c[nH]c3ccccc23)C(=O)N[C@@H](CCN)C(=O)N[C@@H](Cc2c[nH]c3ccccc23)C(=O)N1C [Example 14005] ({CH2CO}-Y[NMeA]NPHE[Pro(trans-4-cHex)]W[Dab]W[NMeNle][NMeNle][Dab]CG-NH2; thioether N-14)
6 | 0.385 to 6.74 | 0.158 to 4.71 | – | CCCC[C@H]1C(=O)N(C)[C@@H](CCCC)C(=O)N[C@@H](CCCN)C(=O)N[C@H](C(=O)NCC(N)=O)CSCC(=O)N[C@@H](Cc2ccc(O)cc2)C(=O)N(C)[C@@H](C)C(=O)N[C@@H](CC(N)=O)C(=O)N2CCC[C@H]2C(=O)N[C@@H](CN)C(=O)N[C@@H](CC(C)C)C(=O)N2C[C@H](OCc3ccccc3)C[C@H]2C(=O)N[C@@H](Cc2c[nH]c3ccccc23)C(=O)N[C@@H](CO)C(=O)N[C@@H](Cc2c[nH]c3ccccc23)C(=O)N1C [Example 14003] ({CH2CO}-Y[NMeA]NP[Dap]L[Hyp](Bn)WSW[NMeNle][NMeNle][Orn]CG-NH2; thioether N-14)
7 | > 30.5 | > 74.3 | – | CCCC[C@H]1C(=O)N(C)[C@@H](CCCC)C(=O)N[C@@H](CCCNC(=N)N)C(=O)N[C@H](C(=O)NCC(N)=O)CSCC(=O)N[C@@H](Cc2ccc(N=C(N)N)cc2)C(=O)N(C)[C@@H](C)C(=O)N[C@@H](CC(N)=O)C(=O)N2CCC[C@H]2C(=O)N[C@@H](CN)C(=O)N[C@@H](CC(C)C)C(=O)N2C[C@H](O)C[C@H]2C(=O)N[C@@H](Cc2c[nH]c3ccccc23)C(=O)N[C@@H](CO)C(=O)N[C@@H](Cc2c[nH]c3ccccc23)C(=O)N1C [Example 7064] ({CH2CO}-[Phe(4-guanidino)][NMeA]NP[Dap]L[Hyp]WSW[NMeNle][NMeNle]RCG-NH2; thioether N-14)
